Results: patent US9650395B2, “Antibacterial compounds and methods for use” (PTC Therapeutics, Inc., priority 2011, dated 2017)
Converted amounts (≈) assume the structure as drawn. Like-named read-outs stand apart in the source and are kept apart here.

Experiments:
[1] = test system: quinolone resistant E. coli LZ3111; experiment: Antibacterial activity, MIC, quinolone resistant E. coli LZ3111; type: cell-based, Escherichia coli; conditions: Escherichia coli, read-out: MIC, LZ3111
Text: The antibacterial activity from a microbroth dilution method may be presented as the minimum inhibitory concentration (MIC in […]). The MIC value is the lowest concentration of a drug which prevents macroscopically visible bacterial growth under test conditions.
Mutations in these regions are known to confer a high level resistance to the quinolone class of antibiotics.

[2] = test system: control Gram-negative E. coli 25922 strain; experiment: Antibacterial activity, microbroth dilution MIC, E. coli 25922; type: cell-based, Escherichia coli; conditions: Escherichia coli; E. coli 25922, microbroth dilution; read-out: MIC, 25922
[3] = test system: Gram-positive Staphylococcus aureus (S. aureus) 29213; experiment: Antibacterial activity, microbroth dilution MIC, S. aureus 29213; type: cell-based; conditions: Staphylococcus aureus; S. aureus 29213, microbroth dilution; read-out: MIC, 29213
[4] = test system: super sensitive Gram-negative Escherichia coli (E. coli) BAS849; experiment: Antibacterial activity, microbroth dilution MIC, E. coli BAS849; type: cell-based; conditions: Escherichia coli, read-out: MIC, BAS849
[5] = E. coli BAS849, microbroth dilution

Compound	MIC [1]	MIC [2]	MIC [3]	MIC [4]	MIC [4, 5]
CCc1cc(C(=O)O)c(=O)[nH]c1-c1ccc(N2C[C@H]3CC[C@H](N=[N+]=[N-])[C@H]3C2)cc1.O=C(O)C(F)(F)F [Cpd 245, 6-{4-[(3aR,4S,6aS)-4-azidohexahydrocyclopenta[c]pyrrol-2(1H)-yl]phenyl}-5-ethyl-2-oxo-1,2-dihydropyridine-3-carboxylic acid trifluoroacetate]	12.5 to 150 µg/mL	3.5 to 12.5 µg/mL	3.5 to 12.5 µg/mL	< 1 µg/mL	
CCc1c(-c2ccc(N3C[C@H]4C[C@@H](N)C[C@H]4C3)cc2)[nH]c(=O)c(C(=O)O)c1O [Cpd 248, 6-{4-[(3aR,5r,6aS)-5-aminohexahydrocyclopenta[c]pyrrol-2(1H)-yl]phenyl}-5-ethyl-4-hydroxy-2-oxo-1,2-dihydropyridine-3-carboxylic acid]	12.5 to 150 µg/mL (≈ 32.6 to 391 µM)	12.5 to 150 µg/mL (≈ 32.6 to 391 µM)	12.5 to 150 µg/mL (≈ 32.6 to 391 µM)		1 to 3.5 µg/mL (≈ 2.61 to 9.13 µM)
CCc1c(-c2ccc(N3C[C@H](CN(Cc4ccccc4)Cc4ccccc4)[C@@H](C)C3)cc2)[nH]c(=O)c(C(=O)O)c1O [Cpd 249, 6-(4-{(3S,4R)-3-[(dibenzylamino)methyl]-4-methylpyrrolidin-1-yl}phenyl)-5-ethyl-4-hydroxy-2-oxo-1,2-dihydropyridine-3-carboxylic acid]	12.5 to 150 µg/mL (≈ 22.7 to 272 µM)	12.5 to 150 µg/mL (≈ 22.7 to 272 µM)	12.5 to 150 µg/mL (≈ 22.7 to 272 µM)		12.5 to 150 µg/mL (≈ 22.7 to 272 µM)
CCc1c(-c2ccc(N3C[C@H]4C[C@@H](NCc5ccccc5)C[C@H]4C3)cc2)[nH]c(=O)c(C(=O)O)c1O [Cpd 250, 6-{4-[(3aR,5r,6aS)-5-(benzylamino)hexahydrocyclopenta[c]pyrrol-2(1H)-yl]phenyl}-5-ethyl-4-hydroxy-2-oxo-1,2-dihydropyridine-3-carboxylic acid]	12.5 to 150 µg/mL (≈ 26.4 to 317 µM)	12.5 to 150 µg/mL (≈ 26.4 to 317 µM)	12.5 to 150 µg/mL (≈ 26.4 to 317 µM)		3.5 to 12.5 µg/mL (≈ 7.39 to 26.4 µM)
CCc1c(-c2ccc(N3C[C@H]4C[C@@H](N(Cc5ccccc5)Cc5ccccc5)C[C@H]4C3)cc2)[nH]c(=O)c(C(=O)O)c1O [Cpd 251, 6-{4-[(3aR,5r,6aS)-5-(dibenzylamino)hexahydrocyclopenta[c]pyrrol-2(1H)-yl]phenyl}-5-ethyl-4-hydroxy-2-oxo-1,2-dihydropyridine-3-carboxylic acid]	12.5 to 150 µg/mL (≈ 22.2 to 266 µM)	12.5 to 150 µg/mL (≈ 22.2 to 266 µM)	12.5 to 150 µg/mL (≈ 22.2 to 266 µM)		12.5 to 150 µg/mL (≈ 22.2 to 266 µM)
CCc1c(-c2ccc(N3CC4CCCN(C(=O)OC(C)(C)C)C4C3)cc2)[nH]c(=O)c(C(=O)O)c1O (stereo not drawn) [Cpd 253, 6-{4-[1-(tert-butoxycarbonyl)octahydro-6H-pyrrolo[3,4-b]pyridin-6-yl]phenyl}-5-ethyl-4-hydroxy-2-oxo-1,2-dihydropyridine-3-carboxylic acid]	12.5 to 150 µg/mL (≈ 25.8 to 310 µM)	12.5 to 150 µg/mL (≈ 25.8 to 310 µM)	3.5 to 12.5 µg/mL (≈ 7.24 to 25.8 µM)		< 1 µg/mL
CCc1c(-c2ccc(N3CCC(CN(C)Cc4ccccc4)C3)cc2)[nH]c(=O)c(C(=O)O)c1O (stereo not drawn) [Cpd 255, 6-[4-(3-{[benzyl(methyl)amino]methyl}pyrrolidin-1-yl)phenyl]-5-ethyl-4-hydroxy-2-oxo-1,2-dihydropyridine-3-carboxylic acid]	12.5 to 150 µg/mL (≈ 27.1 to 325 µM)	12.5 to 150 µg/mL (≈ 27.1 to 325 µM)	3.5 to 12.5 µg/mL (≈ 7.58 to 27.1 µM)		3.5 to 12.5 µg/mL (≈ 7.58 to 27.1 µM)
CCc1c(-c2ccc(N3C[C@H]4CNC[C@H]4C3)cc2)[nH]c(=O)c(C(=O)O)c1O.Cl [Cpd 274, 5-ethyl-6-{4-[(3aR,6aS)-hexahydropyrrolo[3,4-c]pyrrol-2(1H)-yl]phenyl}-4-hydroxy-2-oxo-1,2-dihydropyridine-3-carboxylic acid hydrochloride]	12.5 to 150 µg/mL	12.5 to 150 µg/mL	12.5 to 150 µg/mL		1 to 3.5 µg/mL
CCc1c(-c2ccc(N3CCC4(CCNCC4)C3)cc2)[nH]c(=O)c(C(=O)O)c1O.Cl [Cpd 278, 6-[4-(2,8-diazaspiro[4.5]dec-2-yl)phenyl]-5-ethyl-4-hydroxy-2-oxo-1,2-dihydropyridine-3-carboxylic acid hydrochloride]	12.5 to 150 µg/mL	3.5 to 12.5 µg/mL	3.5 to 12.5 µg/mL		< 1 µg/mL
CCc1c(-c2ccc(N3CCC(O)CC3)cc2)[nH]c(=O)c(C(=O)O)c1O [Cpd 280, 5-ethyl-4-hydroxy-6-[4-(4-hydroxypiperidin-1-yl)phenyl]-2-oxo-1,2-dihydropyridine-3-carboxylic acid]	12.5 to 150 µg/mL (≈ 34.9 to 419 µM)	12.5 to 150 µg/mL (≈ 34.9 to 419 µM)	12.5 to 150 µg/mL (≈ 34.9 to 419 µM)		< 1 µg/mL
CCc1c(-c2ccc(N3CCC(OCc4ccccc4)CC3)cc2)[nH]c(=O)c(C(=O)O)c1O [Cpd 281, 6-{4-[4-(benzyloxy)piperidin-1-yl]phenyl}-5-ethyl-4-hydroxy-2-oxo-1,2-dihydropyridine-3-carboxylic acid]	12.5 to 150 µg/mL (≈ 27.9 to 334 µM)	12.5 to 150 µg/mL (≈ 27.9 to 334 µM)	12.5 to 150 µg/mL (≈ 27.9 to 334 µM)		3.5 to 12.5 µg/mL (≈ 7.8 to 27.9 µM)
CCc1c(-c2ccc(N3CCC(OC)CC3)cc2)[nH]c(=O)c(C(=O)O)c1O [Cpd 282, 5-ethyl-4-hydroxy-6-[4-(4-methoxypiperidin-1-yl)phenyl]-2-oxo-1,2-dihydropyridine-3-carboxylic acid]	12.5 to 150 µg/mL (≈ 33.6 to 403 µM)	12.5 to 150 µg/mL (≈ 33.6 to 403 µM)	12.5 to 150 µg/mL (≈ 33.6 to 403 µM)		< 1 µg/mL
